Data on eight molecules can be found in patent US10105357B2, “Indication of antibiotic drugs for preparation of cancer inhibition pharmaceutical composition” (LAUNX BIOMEDICAL CO., LTD., priority 2014, dated 2018).

Holding throughout (assay type): cell-based, human
Assay [1] has as its system A549 (Lung Adenocarcinoma). Description: Cell viability analysis, lung cancer A549. Particulars: Homo sapiens.
The test system of assay [2] is HI650 (Lung Adenocarcinoma). Description: Cell viability analysis, lung cancer HI650. Particulars: Homo sapiens.
Assay [3] concerns MKN-45 (Gastric Adenocarcinoma). Description: Cell viability analysis, gastric cancer MKN-45. The settings on record: Homo sapiens.
The test system of assay [4] is HL-60 (Acute Promyelocytic Leukemia). Description: Cell viability analysis, leukemia HL-60. The settings on record: Homo sapiens.
In assay [5] the test system is TSGH-8301 (Urinary Bladder Carcinoma). Description: Cell viability analysis, bladder cancer TSGH-8301. Particulars: Homo sapiens.
The test system of assay [6] is PC3 (p53−) (Prostate Adenocarcinoma). Description: Cell viability analysis, prostate cancer PC3. Particulars: Homo sapiens.
For assay [7], the system named is A375 (Amelanotic Melanoma). Description: Cell viability analysis, skin cancer A375. Particulars: Homo sapiens.
For assay [8], the system named is LoVo (Colorectal Adenocarcinoma). Description: Cell viability analysis, colon cancer LoVo. The settings on record: Homo sapiens, LoVo.
Assay [9] concerns MCF7 (Mammary Gland, Adenocarcinoma). Description: Cell viability analysis, breast cancer MCF7. The settings on record: Homo sapiens.
Assay [10] relates to AGS (Gastric Adenocarcinoma). Description: Cell viability analysis, gastric cancer AGS. Particulars: Homo sapiens.
The test system of assay [11] is HeLa (Cervix Adenocarcinoma). Description: Cell viability analysis, cervical cancer HeLa. Particulars: Homo sapiens, HeLa.
The next assay relates to cancer cell lines. Description: Cell viability analysis (WST-1) on cancer cell lines. The settings on record: drug 10 μM, 72 hours, WST-1; Table 3. On the technique in general: Tetrazolium assays rely on reduction of a dye to a coloured formazan, in cell work by metabolically active cells.
Assay [12] concerns HepG2 (Hepatocellular Carcinoma). Description: Cell viability analysis, hepatic cancer HepG2. The settings on record: Homo sapiens.
[13] abbreviates: A549, 72 h, read-out: cell viability (survival rate), A549, drug 10 μM, 72 hours, WST-1, OD450 nm.
[14] abbreviates: NCI-H1650, 72 h, read-out: cell viability (survival rate), H1650, drug 10 μM, 72 hours, WST-1, OD450 nm.
The mark [15] stands for this setting: MKN-45, 72 h, read-out: cell viability (survival rate), MKN-45, drug 10 μM, 72 hours, WST-1, OD450 nm.
Where [16] appears, read: HL-60, 72 h, read-out: cell viability (survival rate), HL-60, drug 10 μM, 72 hours, WST-1, OD450 nm.
The mark [17] stands for this setting: 72 h, read-out: cell viability (survival rate), TSGH, drug 10 μM, 72 hours, WST-1, OD450 nm.
Where [18] appears, read: 72 h, read-out: cell viability (survival rate), PC3, drug 10 μM, 72 hours, WST-1, OD450 nm.
The mark [19] stands for this setting: A-375, 72 h, read-out: cell viability (survival rate), A375, drug 10 μM, 72 hours, WST-1, OD450 nm.
Where [20] appears, read: 72 h, read-out: cell viability (survival rate), LoVo, drug 10 μM, 72 hours, WST-1, OD450 nm.
Setting [21] is: MCF7, 72 h, read-out: cell viability (survival rate), MCF7, drug 10 μM, 72 hours, WST-1, OD450 nm.
[22] abbreviates: 72 h, read-out: cell viability (survival rate), AGS, drug 10 μM, 72 hours, WST-1, OD450 nm.
[23] abbreviates: 72 h, read-out: cell viability (survival rate), HeLa, drug 10 μM, 72 hours, WST-1, OD450 nm.
Setting [24] is: HepG2, 72 h, read-out: cell viability (survival rate), HepG2, drug 10 μM, 72 hours, WST-1, OD450 nm.

Structures can show the parent of a compound that is named as a salt. Where two headings read alike, the source gives them in different places.

As usually defined, the viability is a read-out of living cells in per cent, often relative to untreated cells. As to `Cc1cc(NS(=O)(=O)c2ccc(N)cc2)no1` [Sulfamethoxazole], the viability at 10 µM in assay [1] (setting [13]) was determined as 43.9%; in assay [2] (setting [14]) it was 85.8%; in assay [3] (setting [15]), 60.7%; in assay [4] (setting [16]), 99.4%; in assay [5] (setting [17]) it was 62.1%; in assay [6] (setting [18]) it was 44.9%. The viability at 10 µM in [7] (setting [19]) was found to be 44.3%; in assay [8] (setting [20]), 71.7%; in [9] (setting [21]) it was 46.1%; in assay [10] (setting [22]) it was 67.7%; in [11] (setting [23]), 87.8%; in [12] (setting [24]), 115%. Also, in the assay on cancer cell lines, the “inhibition effect on different cancer cell lines” value is listed as “significant inhibition effect”.

Consider `Nc1ccc(S(=O)(=O)Nc2ccccn2)cc1` [Sulfapyridine (Dagenan), Sulfapyridine], for which the viability at 10 µM turned out to be 64.5% in assay [1] (setting [13]); 69.5% in assay [2] (setting [14]); 53.8% in assay [3] (setting [15]); 111% in assay [4] (setting [16]); 64.6% in assay [5] (setting [17]); 108% in assay [6] (setting [18]). For the same molecule, the viability at 10 µM is 77.2% in assay [7] (setting [19]); 84.6% in assay [8] (setting [20]); 54.7% in assay [9] (setting [21]); 71.9% in assay [10] (setting [22]); 71.2% in assay [11] (setting [23]); 98.9% in [12] (setting [24]). In the assay with cancer cell lines, the “inhibition effect on different cancer cell lines” value was “significant inhibition effect”.

Turning to `Nc1ccc(S(=O)(=O)Nc2nccs2)cc1` [Sulfathiazole], the viability at 10 µM in assay [1] (setting [13]) was 47.2%; in [2] (setting [14]) it was 38.8%; in assay [3] (setting [15]) it was 30.8%; in [4] (setting [16]) it was 96.7%; in assay [5] (setting [17]) it was 54.5%; in assay [6] (setting [18]), 94.9%. For the same molecule, the viability at 10 µM turned out to be 30.8% in assay [7] (setting [19]); 78.1% in [8] (setting [20]); 60.1% in assay [9] (setting [21]); 54.6% in assay [10] (setting [22]); 47.7% in assay [11] (setting [23]); 65.7% in assay [12] (setting [24]). In the assay on cancer cell lines, the “inhibition effect on different cancer cell lines” value is on record as “significant inhibition effect”.

Take `COc1cc(NS(=O)(=O)c2ccc(N)cc2)nc(OC)n1` [Sulphadimethoxine]: the viability at 10 µM in [1] (setting [13]) amounted to 100%; in assay [2] (setting [14]), 83.1%; in assay [3] (setting [15]), 72%; in assay [4] (setting [16]) it was 120%; in [5] (setting [17]), 132%; in assay [6] (setting [18]), 94%. In addition, the viability at 10 µM in assay [7] (setting [19]) worked out at 76%; in [8] (setting [20]), 70.8%; in assay [9] (setting [21]), 94.3%; in [10] (setting [22]), 99.3%; in [11] (setting [23]) it was 68.8%; in [12] (setting [24]) it was 90.3%. Besides, the “inhibition effect on different cancer cell lines” value in the assay with cancer cell lines was “significant inhibition effect”.

Consider `NCCS(=O)(=O)O` [Taurine], for which the viability at 10 µM turned out to be 84% in [1] (setting [13]); 46.1% in [2] (setting [14]); 61.6% in assay [3] (setting [15]); 116% in assay [4] (setting [16]); 110% in [5] (setting [17]); 61.1% in [6] (setting [18]). Also, the viability at 10 µM in assay [7] (setting [19]) was determined as 77.6%; in [8] (setting [20]) it was 98.5%; in assay [9] (setting [21]), 91.5%; in assay [10] (setting [22]) it was 64.1%; in assay [11] (setting [23]), 84.9%; in [12] (setting [24]) it was 93.1%. Besides, in the assay on cancer cell lines, the “inhibition effect on different cancer cell lines” value is recorded as “significant inhibition effect”.

In the case of `Cc1cn([C@@H]2C[C@@H](O)[C@H](CO)O2)c(=O)[nH]c1=O` [Telbivudine (Sebivo, Tyzeka), Telbivudine], the viability at 10 µM in assay [1] (setting [13]) was 43.7%; in assay [2] (setting [14]) it was 67.5%; in [3] (setting [15]), 36.2%; in assay [4] (setting [16]), 100%; in [5] (setting [17]), 50.4%; in [6] (setting [18]), 53.6%. In addition, the viability at 10 µM in [7] (setting [19]) was 57.5%; in assay [8] (setting [20]), 65.3%; in assay [9] (setting [21]), 31.9%; in [10] (setting [22]), 27.5%; in assay [11] (setting [23]) it was 51.9%; in assay [12] (setting [24]) it was 94.4%. In addition, in the assay with cancer cell lines, the “inhibition effect on different cancer cell lines” value is “significant inhibition effect”.

As for `CC(C)OC(=O)OCOP(=O)(CO[C@H](C)Cn1cnc2c(N)ncnc21)OCOC(=O)OC(C)C` [Tenofovir Disoproxil Fumarate], the viability at 10 µM in assay [1] (A549, drug 10 μM, 72 hours, WST-1, OD450 nm, read-out: cell viability (survival rate), A549) turned out to be 47%; in assay [2] (NCI-H1650, drug 10 μM, 72 hours, WST-1, OD450 nm, read-out: cell viability (survival rate), H1650), 50.9%; in assay [3] (MKN-45, drug 10 μM, 72 hours, WST-1, OD450 nm, read-out: cell viability (survival rate), MKN-45), 71.6%; in [4] (HL-60, drug 10 μM, 72 hours, WST-1, OD450 nm, read-out: cell viability (survival rate), HL-60), 93.4%; in assay [5] (drug 10 μM, 72 hours, WST-1, OD450 nm, read-out: cell viability (survival rate), TSGH) it was 88.2%; in assay [6] (drug 10 μM, 72 hours, WST-1, OD450 nm, read-out: cell viability (survival rate), PC3), 66.9%. Further, the viability at 10 µM in assay [7] (A-375, drug 10 μM, 72 hours, WST-1, OD450 nm, read-out: cell viability (survival rate), A375) came out at 67.1%; in assay [8] (drug 10 μM, 72 hours, WST-1, OD450 nm, read-out: cell viability (survival rate), LoVo) it was 75.8%; in assay [9] (MCF7, drug 10 μM, 72 hours, WST-1, OD450 nm, read-out: cell viability (survival rate), MCF7), 68.7%; in [10] (drug 10 μM, 72 hours, WST-1, OD450 nm, read-out: cell viability (survival rate), AGS), 54.7%; in [11] (drug 10 μM, 72 hours, WST-1, OD450 nm, read-out: cell viability (survival rate), HeLa) it was 85.7%; in assay [12] (HepG2, drug 10 μM, 72 hours, WST-1, OD450 nm, read-out: cell viability (survival rate), HepG2), 93.7%. The “inhibition effect on different cancer cell lines” value with cancer cell lines is given as “significant inhibition effect”.

In the case of `COc1cc2nc(N3CCN(C(=O)C4CCCO4)CC3)nc(N)c2cc1OC` (centres unmarked) [Terazos in HCl (Hytrin), Terazosin HCl], the viability at 10 µM was determined as 21.3% in [1] (setting [13]); 74.9% in assay [2] (setting [14]); 82.1% in [3] (setting [15]); 111% in assay [4] (setting [16]); 71.6% in [5] (setting [17]); 40.5% in [6] (setting [18]). The viability at 10 µM in [7] (setting [19]) was determined as 77.9%; in assay [8] (setting [20]), 45.7%; in [9] (setting [21]), 33.4%; in [10] (setting [22]), 56.8%; in assay [11] (setting [23]), 60.7%; in [12] (setting [24]), 93.4%. Further, in the assay on cancer cell lines, the “inhibition effect on different cancer cell lines” value is “significant inhibition effect”.
